{"source": "patent US20060206946A1", "about": "“Method of disrupting heme transport in nematodes and of modelling and evaluating eukaryotic heme transport” (priority 2005, published 2006)", "key": {"C. elegans mutant IH828": {"tested_on": "C. elegans mutant IH828", "test": "Growth of heme resistant mutant in CeHR medium", "format": "in vivo, Caenorhabditis elegans", "conditions": "in vivo", "description": "(§1) To further increase the stringency of our genetic screen we split the contents from each 800 μM hemin selection flasks into two flasks containing either 800 μM or 1000 μM hemin. This allowed us to use another tier of positive selection to identify mutants with greater resistance to heme toxicity. Mutants from each flask were isolated and treated as a separate entity by giving an identification number based on the Genetic Nomenclature Guidelines used for C. elegans (http://biosci.umn.edu/CGC/Nomenclature/nomenguid.htm). To eliminate EMS-induced spurious mutations that could result in false positive, the mutants were outcrossed to wild-type N2 males. After five outcrosses, which replaces ˜97% of the mutant genome, mutants that bred true were selected for further analysis. Using this procedure, we isolated 13 individual mutants that were resistant to heme toxicity. These mutants were further characterized by analyzing Mendelian segregation ratios, X-linkage, phenotype penetrance, generation times, brood size, and their ability to grow under low hemin. […] This observation was surprising because we anticipated that high heme-resistant mutants will grow poorly under low heme. Based on the mutant's growth profile at low and high heme levels, we broadly categorized them into three phenotypic classes: class A, class B and class C (FIG. 13). These “phenoclusters” have the following growth phenotype: (a) three mutants IH728, IH938, IH731 show with robust growth under low and high (≧800 μM heme (FIG. 13B), (b) one mutant IH828 show exceptional growth under low heme, moderate growth at ≦800 μM heme, and no growth at 1000 μM hemin (FIG. 13C), and (c) six mutants IH921, IH11058, IH1068n, IH1068d, IH1048, and IH718 that show moderate growth under high heme (≦800 μM), but normal growth under low heme (FIG. 13D). By classifying these mutants into phenoclusters, we can focus our efforts on the phenotypic datasets to map the molecular networks and pathways involved in heme dependent processes. For instance, mutants in a cluster may have mutations within the same gene or in multiple genes but within the same pathway.\n(§2) Worm Culture and Growth Assays. Free-living worms were cultured in CeHR axenic liquid medium (Dr. Eric Clegg, Personal Communication). […] CeHR medium was modified (henceforth called mCeHR) to eliminate all sources of exogenously added heme; basal growth medium comprised 20 μM hemin chloride (Frontier Scientific, Logan, Utah) and 150 μM of ferrous ammonium sulfate (Sigma Chemicals). Worm strains were grown in mCeHR medium under aerobic conditions in tissue culture flasks at 20° C. ˜3.7×10^6 worms were routinely obtained after 3.5 to 4 days in a T75 flask with 30 ml basal medium from an initial inoculum of −1.5×10^5 worms. For initial culturing of worms in axenic media, three generations of worms were sequentially bleached (1.1% bleach/0.55 M NaOH) to eliminate any contaminating bacterial carryover from agar plates. In all dose-response experiments, worms were growth synchronized by treating the gravid hermaphrodite worms with bleach to dissolve adult worms. The eggs, resistant to bleach, were liberated from the carcasses and extensively washed with M9 buffer followed by overnight hatching in M9 buffer to synchronize growth. By harvesting at appropriate time intervals, synchronous larval stages and adult staged worms were collected for experimental manipulations. Identical numbers of synchronized L1 larvae were inoculated into media with different heme concentrations in 12- or 24-well culture plates. Worm growth was monitored each day and an aliquot was obtained for counting by microscopy usually at days 3, 6, and 9. The worms in each well were counted twice and each growth condition was analyzed in triplicate. P values for statistical significance were calculated utilizing a one-way ANOVA with Student-Newman-Keuls multiple comparison test using GraphPad Instat version 3.01. […]"}, "[1]": {"tested_on": "C. elegans wild-type N2 strain", "test": "Worm culture and growth assay in axenic CeHR/mCeHR liquid medium", "format": "in vivo", "set-up": "key to Growth 1.6 μM hemin / Growth 0.5 μM GaPP: + = wild type equivalent In growth; ND: No growth", "description": "(D) Biphasic response of C. elegans cultured in the presence of increasing amounts of hemin chloride (μM). Equal numbers of synchronized L1 larvae were grown in 24-well plates in mCeHR medium for 9 days and quantified (worms/μl) by microscopy. Each data point represents the mean±SD from three separate experiments performed in triplicate.\n(A) Aerobic growth of C. elegans in mCeFIR medium with 20 μM hemin supplemented with either gallium protoporphyrin IX (GaPP) or gallium salts. Synchronized L1 larvae were grown for 9 days in 24-well plates and quantified (worms/μl) by microscopy. Each data point represents the mean from a single experiment, and each experiment was performed in triplicate. Inset depicts the GaPP analysis at lower concentrations for clarity.\n(B) Effect of heme on the cytotoxicity of GaPP. Synchronized L1 larvae were inoculated in 24-well plates containing mCeHR medium with either 0, 2, 4, or 6 μM GaPP and increasing hemin (μM). The number of worms per μl was measured on day 9 and the data are presented as mean±SD.\nFIG. 9 depicts worm utilization of heme-iron under iron deprivation. Equal numbers of synchronized L1 larvae were grown in the presence of 4, 20, and 100 μM hemin, either in basal mCeHR medium (set 1), or basal medium lacking exogenous iron (set 2), or as set 2 with 1 μM of the iron chelator ferrozine (set 3), or as set 3 with 486 μM ferrous ammonium sulfate (set 4). These values of ferrozine and iron were empirically determined by performing dose-response experiments and analyzing worm growth. The number of worms per μl was measured on day 9 and the data presented as mean±SD performed in triplicate. P<0.001 between sets 1 and 3.\nTo qualitatively and quantitatively determine the heme requirement of C. elegans, we assessed growth at various heme concentrations. Equal numbers of L1 larvae were inoculated in CeHR medium with either no cytochrome c and hemin, or with cytochrome c and increasing amounts of hemin (FIG. 4A). The effect of hemin became apparent within 48 hours and by 9 days, the heme-deplete worms were severely growth retarded at the L1/L2 stages. […] However, this stimulatory effect of heme was toxic to worms grown at heme concentrations >750 μM. To quantitatively assess the effect of heme on worms, we counted the number of live worms grown under different concentration of heme using DIC microscopy. […] On the basis of this association between heme and the growth and reproduction of C. elegans, we conclude that the biphasic nature of heme is likely due to the need for heme under heme-deprived conditions to perform essential metabolic functions, and the lethality of heme at high concentrations can be attributed to its cytotoxic activity.\nas §2, with “manipulations.” for “manipulations. Identical numbers of synchronized L1 larvae were inoculated into media with different heme concentrations in 12- or 24-well culture plates. Worm growth was monitored each day and an aliquot was obtained for counting by microscopy usually at days 3, 6, and 9. The worms in each well were counted twice and each growth condition was analyzed in triplicate. P values for statistical significance were calculated utilizing a one-way ANOVA with Student-Newman-Keuls multiple comparison test using GraphPad Instat version 3.01.”"}, "C. elegans mutant IH1048": {"tested_on": "C. elegans mutant IH1048", "test": "Growth of heme resistant mutant in CeHR medium", "format": "in vivo, Caenorhabditis elegans", "set-up": "key to Growth 1.6 μM hemin / Growth 0.5 μM GaPP: + = wild type equivalent In growth; ND: No growth", "description": "as §1, §2"}, "[2]": {"tested_on": "C. elegans mutant IH1068 n", "test": "Growth of heme resistant mutant in CeHR medium", "format": "in vivo, Caenorhabditis elegans", "set-up": "key to Growth 1.6 μM hemin / Growth 0.5 μM GaPP: + = wild type equivalent In growth; ND: No growth", "description": "as §1, §2"}, "[3]": {"tested_on": "C. elegans mutant IH1068 d", "test": "Growth of heme resistant mutant in CeHR medium", "format": "in vivo, Caenorhabditis elegans", "set-up": "key to Growth 1.6 μM hemin / Growth 0.5 μM GaPP: + = wild type equivalent In growth; ND: No growth", "description": "as §1, §2"}, "C. elegans mutant IH718": {"tested_on": "C. elegans mutant IH718", "test": "Growth of heme resistant mutant in CeHR medium", "format": "in vivo, Caenorhabditis elegans", "set-up": "key: + = wild type equivalent In growth; ND: No growth", "description": "To further increase the stringency of our genetic screen we split the contents from each 800 μM hemin selection flasks into two flasks containing either 800 μM or 1000 μM hemin. This allowed us to use another tier of positive selection to identify mutants with greater resistance to heme toxicity. Mutants from each flask were isolated and treated as a separate entity by giving an identification number based on the Genetic Nomenclature Guidelines used for C. elegans (http://biosci.umn.edu/CGC/Nomenclature/nomenguid.htm). To eliminate EMS-induced spurious mutations that could result in false positive, the mutants were outcrossed to wild-type N2 males. After five outcrosses, which replaces ˜97% of the mutant genome, mutants that bred true were selected for further analysis. Using this procedure, we isolated 13 individual mutants that were resistant to heme toxicity. […]\nWorm Culture and Growth Assays. […] Worm growth was monitored each day and an aliquot was obtained for counting by microscopy usually at days 3, 6, and 9. The worms in each well were counted twice and each growth condition was analyzed in triplicate. P values for statistical significance were calculated utilizing a one-way ANOVA with Student-Newman-Keuls multiple comparison test using GraphPad Instat version 3.01. […]"}}}
{"smiles": "C=CC1=C(C)C2=[N+]3C1=Cc1c(C)c(C=C)c4[n]1[Ga-]31[n]3c(c(C)c(CCC(=O)O)c3=CC3=[N+]1C(=C4)C(C)=C3CCC(=O)O)=C2", "note": "(centres unmarked) [GaPP, gallium protoporphyrin IX]", "values": [{"measurement": "resistance of IH828 to GaPP toxicity", "setting": "C. elegans mutant IH828", "result": "extremely resistant"}, {"measurement": "toxic effect of GaPP in the presence of increasing levels of hemin", "setting": "[1]; 0, 2, 4 or 6 μM GaPP, day 9", "result": "attenuated"}, {"measurement": "toxicity rank among six non-iron metalloporphyrins tested", "setting": "[1]; 4 μM hemin", "result": "most toxic heme analog"}, {"measurement": "Growth 0.5 μM GaPP", "setting": "[1]; Control Wild-type (N2)", "result": "+"}, {"measurement": "sensitivity compared to hemin", "setting": "[1]; F1 progeny", "result": "3,200 fold"}, {"measurement": "GaPP concentration at which worms were growth arrested", "setting": "[1]; F1 progeny of surviving P0 worms grown at lower GaPP", "result": 0.25, "unit": "µM"}, {"measurement": "toxicity relative to hemin", "setting": "[1]; P0 and F1 animals", "result": "800-3000 times"}, {"measurement": "sensitivity compared to hemin", "setting": "[1]; P0 worms", "result": 800, "unit": "fold"}, {"measurement": "GaPP concentration at which worms were growth retarded", "setting": "[1]; P0 worms, medium with hemin", "result": 1, "unit": "µM"}, {"measurement": "sensitivity of worms to GaPPIX compared to heme", "setting": "[1]; in vivo", "result": 30, "unit": "times"}, {"measurement": "Growth 0.5 μM GaPP", "setting": "C. elegans mutant IH1048", "result": "+"}, {"measurement": "Growth 0.5 μM GaPP", "setting": "[2]", "result": "+"}, {"measurement": "Growth 0.5 μM GaPP", "setting": "[3]", "result": "+"}, {"measurement": "Growth 0.5 μM GaPP", "setting": "C. elegans mutant IH718", "result": "+"}]}
